In patent publication US10060908B2, “Oxidized cardiolipin as a pro-inflammatory factor” (MEDIRISTA BIOTECHNOLOGIES AB, priority 2008, dated 2018):

T1: Annexin A5 (Homo sapiens, UniProt P08758)
T1 construct: purchased Bender MedSystems GmbH, Austria
T1 sequence (P08758 1-320): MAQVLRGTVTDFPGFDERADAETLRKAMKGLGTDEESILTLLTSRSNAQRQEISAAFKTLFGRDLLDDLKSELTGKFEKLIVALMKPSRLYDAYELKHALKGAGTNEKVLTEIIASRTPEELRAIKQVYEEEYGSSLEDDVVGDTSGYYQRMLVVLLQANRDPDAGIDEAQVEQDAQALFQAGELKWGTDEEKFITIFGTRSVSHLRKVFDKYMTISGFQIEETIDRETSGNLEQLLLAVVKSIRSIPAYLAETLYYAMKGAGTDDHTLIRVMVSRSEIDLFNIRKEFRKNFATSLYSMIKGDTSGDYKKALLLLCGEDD

B1: Annexin A5: member of the Annexin superfamily with anti-thrombotic properties; from Bender MedSystems (protein, UniProt P08758 2-320, looked up)
Annexin A5: AQVLRGTVTDFPGFDERADAETLRKAMKGLGTDEESILTLLTSRSNAQRQEISAAFKTLFGRDLLDDLKSELTGKFEKLIVALMKPSRLYDAYELKHALKGAGTNEKVLTEIIASRTPEELRAIKQVYEEEYGSSLEDDVVGDTSGYYQRMLVVLLQANRDPDAGIDEAQVEQDAQALFQAGELKWGTDEEKFITIFGTRSVSHLRKVFDKYMTISGFQIEETIDRETSGNLEQLLLAVVKSIRSIPAYLAETLYYAMKGAGTDDHTLIRVMVSRSEIDLFNIRKEFRKNFATSLYSMIKGDTSGDYKKALLLLCGEDD

Experiments:
ICAM-1 (CD54) = test: Adhesion molecule expression by endothelial cells, flow cytometry (ICAM-1); format: cell-based, human; details: HUVECs, 24 h
Method: (§1) Pooled human umbilical vascular endothelial cells (HUVECs) at passage 2 were purchased from Cascade Biologics, Inc (Portland, Ore). Cultures were maintained in EGM™ phenol red-free medium (Clonetics, San Diego, Calif.), containing 2% of fetal bovine serum and supplements, at 37° C. under humidified 5% CO2 conditions. All experiments were performed at passage 3 to 5. HUVECs were seeded at 6×10^4 cells/2 mL density on 6-well plates (NUNC Inc, Naperville, Ill.). After allowing endothelial cells overnight for attachment, cells were ready for stimulation.
(§2) After washing with PBS, OxCL and reduced CL (20 ug/ml) were added. For annexin A5 (From Bender MedSystems GmbH, Austria) inhibition study, OxCL was incubated with Annexin A5 (10 ug/ml) for half hour before adding to cells. After 24 hours incubation, detached floating cells were washed away, cell were harvested into Falcon FACS tubes. […] The intercellular adhesion molecule (ICAM-1) CD54 and the vascular cell adhesion molecule (VCAM-1) CD106 were studied with flow cytometry analysis equipped with CellQuest software. For each sample, 10,000 events were analyzed.

VCAM-1 (CD106) = test: Adhesion molecule expression by endothelial cells, flow cytometry (VCAM-1); format: cell-based, human; details: HUVECs, 24 h
Method: as §1, §2

IL-6 = IL-6 production by HUVEC, protein multiplex immunoassay; format: cell-based, human; details: HUVECs, 24 h; for IL-6 levels of the substance alone compared with the control group: 20 ug/ml
Method: HUVEC cells from above were seeded at density 10^6/2 ml into 6 well plates. Allowing cells attachment for 24 hours, OxCL (20 ug/ml) with or without Annexin A5 (20 ug/ml) and reduced CL were added and incubated for 24 hours. Cell supernatant were collected and IL-6 and IL-8 production were measured with protein multiplex immunoassay kits (from Bioscource, USA) and Bio-PIei™ system (BioRad, USA).

Annexin A5 = biological target: T1, Annexin A5; test: ELISA for Annexin A5 binding to coated cardiolipins; details: lipid 5 ug/ml coated overnight; Annexin A5 0.32-10.24 ug/ml
Method: After five washings with PBS, the plates were blocked with 2% PBS-BSA for 2 h at room temperature. Annexin A5 were added and incubated for 1 hour. After washing, bound annexin A5 was detected by incubating subsequently with rabbit anti-human annexin V polyclonal antibodies (Hyphen Biomed, Andresy, France) 1:2000 and polyclonal goat anti-rabbit Immunoglobulins/AP (DakoCytomation) 1:3000 were used. The reaction was developed with alkaline phosphatase substrate (Sigma), and optical density (OD) was read at 405 nm with an ELISA Multiscan Plus spectrophotometer (Molecular Devices Emax, San Francisco). All samples were measured in duplicates and the coefficient of variation was below 15%.

[1] = tested on: THP-1 differentiated macrophages; test: Uptake of Dil-labeled OxLDL in macrophages, flow cytometry; format: cell-based, human; details: competitor 40, 80 ug/ml (LDL 40 ug/ml), Dil-OxLDL 5 ug/ml, 4 hours
Method: OxLDL (Industrylane Frederick) were incubated with Dil (Molecular Probes Engene, Oregon, USA) in lipoprotein-deficient serum (Sigma) at 37° C. for 15 hours. Then dialyzed against saline-EDTA buffer for 6 hours.
Uptake of Dil-labelled OxLDL was studied either by Flow cytometry or Fluorescence/confocal microscopy. For microscopy, The macrophages 1×10^6 were grown overnight on culture slides (Nunc, Naperville, N.Y.), For flow cytometry, The macrophages were plated in a 6-well plate at density of 1×10^6 cells/well in DMEM (INVITROGEN, USA) containing 10% FBS overnight. […] Thereafter, the cells from above were washed 4 times with 0.2% BSA/PBS and once with PBS. The cells were harvested in PBS containing 0.1% BSA and 0.01% NaN3. Mean fluorescence intensity was measured by flow cytometry (BD Biosciences, San Jose, Calif., USA). For each sample, fluorescence emission above 550 nm was measured and a minimum of 10.000 cells was analyzed.

neutrophils = test: Intracellular calcium mobilization, FURA-2AM fluorometer; format: cell-based, human; details: for MFI of calcium mobilization: within 120 seconds
Method: (§3) Human PMNs were isolated from freshly prepared buffy coats (Karolinska Hospital blood bank, Stockholm, Sweden) by dextran sedimentation, hypotonic lysis of erythrocytes and gradient centrifugation on Lymphoprep (Axis-Shield PoC AS, Oslo, Norway). PMNs were suspended at a density of 10×10^6/ml in Dulbecco's PBS (Gibco (Invitrogen), Paisley, UK). PMN purity (>95%) and viability (>98%) was determined using Hemacolor (J. T. Baker, Utrecht, Holland) and Trypan Blue (Sigma Chemical Co.) staining, respectively.
Neutrophils were added into black, 96-well plates with transparent bottom (Corning Costar; 5×10^4 cells/well), and spin down the plate at 120×g for 3 min, afterwards changing the medium containing 4 μM FURA-2AM (Fura-2 acetoxymethyl ester), or buffer as appropriate, and the cells were incubated for 30 min at 37° C. and 5% CO2. Cells were washed four times with 50 μl of a buffer solution (135 mM NaCl, 4.6 mM KCl, 1.2 mM MgCl2, 1.5 mM CaCl2, 11 mM glucose, 11 mM Hepes, pH 7.4) before a final 45 μl volume of buffer was added to each well.
The plates were transferred to a fluorometer (Fluostar™, BMG Technologies), and 50 μl of different agonists according to experimental designs or buffer solution as control were injected into individual wells and the cells were monitored for the next 120 seconds. Control wells containing cells that had not been exposed to FURA-2AM were used to subtract background auto-fluorescence. The results are given as the ratio of mean fluorescence intensity (MFI) between 340 and 380 nm, and normalized by control.

leukotriene B4 = test: Leukotriene B4 release from neutrophils, EIA; format: cell-based; details: human neutrophils
Method: as §3
(§4) Analysis of leukotriene B4 Biosynthesis by EIA kit 2×10^6 macrophages were incubated with different agents according to the experimental design, and then quenched with an equal volume methanol. After acidified to pH 3-4, the samples were purified by solid-phase extraction (Supelclean™ LC-18, Supelco) and eluted in methanol. After dried under nitrogen, the samples were re-suspended in EIA buffer. The level of LTB4 was determined with LTB4 EIA kit (Cayman Chemical) by using dilutions within the linear portion of the standard curve.

CD8-positive T-cells = test: Activation of CD8-positive T cells (CD69), flow cytometry; format: cell-based; details: human PBMC, 5 ug/ml over night
Method: Both CD4 and CD8 positive T cells were studied. Quadrant Q2 represent (%) T-cells positive for CD69 expressing and thus activated T-cells.
Both CD4 and CD8 positive T-cells from the cell line Human PBMC where studied in an incubation setup illustrated in FIG. 11A-F. Both T-cell types where incubated with, buffer (control), oxCL or CL to determine the effect on activation, interpreted by the expression of CD69 surface molecule after stimulation.
In this experiment the attention must be drawn to the quadrant Q2 of the flow cytometry data shown. This quadrant represents the percentage of T-cells in the population tested to be CD69 positive, e.g. activated by the stimuli prior to the data collection.

LTB4 = test: Leukotriene B4 biosynthesis in macrophages, EIA; format: cell-based; details: human monocyte-derived macrophages
Method: Human mononuclear cells were isolated from freshly prepared buffy coats (Karolinska Hospital blood bank, Stockholm, Sweden) by gradient centrifugation on Ficoll-Paque (Amersham Biosciences, Uppsala, Sweden). The mononuclear cells were cultured at a density of 5×10^6/ml in RPMI-1640 medium with 25 mM Hepes, 1% L-glutamine, 1% penicillin-streptomycin and 10% FBS. After 7 days, there are proximate 2×10^6 macrophages per well.
as §4

[2] = oxCL 20 ug/ml preincubated with Annexin A5 10 ug/ml

Row | Molecule | ICAM-1 expression (ICAM-1 (CD54); 20 ug/ml) | VCAM-1 expression (VCAM-1 (CD106); 20 ug/ml) | IL-6 levels of the substance alone compared with the control group (IL-6) | binding to Annexin A5 (Annexin A5) | competition of dil-oxLDL uptake (in words) [1] | MFI of calcium mobilization (neutrophils) | leukotriene B4 release (leukotriene B4) | CD69 expression (activation) of CD8-positive T cells (CD8-positive T-cells) | inhibition of oxCL-induced ICAM-1 (CD54) expression (ICAM-1 (CD54); [2]) | inhibition of oxCL-induced VCAM-1 (CD106) expression (VCAM-1 (CD106); [2]) | IL-6 level, oxCL with Annexin A5 (IL-6; oxCL 20 ug/ml with Annexin A5 20 ug/ml) [pg/mL] | inhibition of oxCL-induced calcium mobilization (neutrophils; oxCL incubated with Annexin A5) | inhibition of OxCL-induced LTB4 production (LTB4)
1 | Cardiolipin [CL] | did not show the same effect | did not show the same effect | could not significantly increase | can bind | did not show the competition effetcts | did not increase | did not show the similar reaction | not |  |  |  |  | 
2 | Hydro heart cardiolipin [reduced CL] |  |  |  | could not bind | not |  |  |  |  |  |  |  | 
3 | B1 |  |  | could not significantly increase |  |  | did not increase |  |  | significantly inhibited | significantly inhibited | 276.4 ± 28.62 | greatly inhibited | greatly inhibited
